Measured values: US12673946B2, “Pyrimidin-4(3H)-one derivatives as TRPV4 antagonists” (RaQualia Pharma Inc., priority 2020, dated 2026)

Molecular target: T1, human TRPV4 (Homo sapiens, UniProt Q9HBA0)
T1 construct: host or cells: tetracycline-inducible Flp-In T-REx 293 cells
Test: Hypotonicity-induced Ca2+ influx (Fluo-4, FDSS)
Format: cell-based
How it was run: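 Flp-In T-REx 293 cells with tetracycline-induced human TRPV4, loaded with Fluo-4 for 60 min at 25 °C. Compound added 5 min before hypotonic mannitol/CaCl2 solution. Ca2+ signal recorded for 4.5 min on FDSS.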

[1] = Flp-In T-REx 293 cells expressing human TRPV4, examples listed under heading 'Human IC50<50 nM'
[2] = Flp-In T-REx 293 cells stably expressing human TRPV4, compounds listed by potency bin (<10 nM Tables 96-1/96-2, <3 nM Table 97)

T1 sequence (Q9HBA0 whole entry): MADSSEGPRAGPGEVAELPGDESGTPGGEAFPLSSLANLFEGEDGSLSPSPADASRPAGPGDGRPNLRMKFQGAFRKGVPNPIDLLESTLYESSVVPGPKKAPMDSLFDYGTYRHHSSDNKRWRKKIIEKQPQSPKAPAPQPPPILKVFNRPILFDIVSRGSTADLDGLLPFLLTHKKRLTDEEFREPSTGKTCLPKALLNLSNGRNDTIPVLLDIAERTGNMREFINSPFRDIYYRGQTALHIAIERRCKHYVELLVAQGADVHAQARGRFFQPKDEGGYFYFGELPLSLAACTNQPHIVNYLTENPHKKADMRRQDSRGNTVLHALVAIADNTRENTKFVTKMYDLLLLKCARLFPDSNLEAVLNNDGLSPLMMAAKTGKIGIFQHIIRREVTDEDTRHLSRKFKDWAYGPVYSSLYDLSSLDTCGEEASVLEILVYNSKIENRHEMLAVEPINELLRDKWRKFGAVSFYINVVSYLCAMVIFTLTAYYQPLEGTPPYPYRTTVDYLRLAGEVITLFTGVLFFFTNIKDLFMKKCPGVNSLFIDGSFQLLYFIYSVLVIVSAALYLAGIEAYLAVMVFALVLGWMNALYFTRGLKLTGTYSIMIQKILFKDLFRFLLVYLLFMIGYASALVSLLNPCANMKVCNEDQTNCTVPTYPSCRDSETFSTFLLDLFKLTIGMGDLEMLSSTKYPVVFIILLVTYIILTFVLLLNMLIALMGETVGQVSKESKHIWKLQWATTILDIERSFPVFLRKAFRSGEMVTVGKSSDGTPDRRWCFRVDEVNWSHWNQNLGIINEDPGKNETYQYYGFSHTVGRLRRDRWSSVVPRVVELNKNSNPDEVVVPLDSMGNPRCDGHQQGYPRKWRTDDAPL

IC50 [1] [nM] | IC50 [2] [nM] | SMILES
< 50 | – | O=C([C@H](O)c1cccc(F)c1F)N1CCCc2nc(C3(c4ccccc4)CC3)[nH]c(=O)c2C1 [10-6]
< 50 | < 10 | O=C([C@H](O)c1cccc(C(F)(F)F)c1)N1CCCc2nc(C3(c4cccc(C5=CCC(C(F)(F)F)CC5)c4)CC3)[nH]c(=O)c2C1 (stereo partly shown) [42-35]
< 50 | – | Cc1cccc(-c2cccc(C(O)C(=O)N3CCc4nc(C5(c6ccccc6)CC5)[nH]c(=O)c4C3)c2)c1 (stereo not shown) [44-51]
< 50 | – | O=C(C(O)c1cc(Cl)cc(Cl)c1)N1CCCc2nc(C3(c4ccccc4)CC3)[nH]c(=O)c2C1 (stereo not shown) [17-61]
< 50 | – | O=C(C(O)c1cncc(-c2cccc(F)c2)c1)N1CCc2nc(C3(c4ccccc4)CC3)[nH]c(=O)c2C1 (stereo not shown) [48-11]
< 50 | < 10 | CC(C)(C)c1cccc(C(O)C(=O)N2CCCc3nc(C4(c5cccc(Cl)c5)CC4)[nH]c(=O)c3C2)c1 (stereo not shown) [17-18]
< 50 | < 10 | O=C([C@H](O)c1cccc(C(F)(F)F)c1)N1CCCc2nc(C3(c4cccc(-c5cccc6ccccc56)c4)CC3)[nH]c(=O)c2C1 [42-49]
< 50 | < 10 | CC(C)c1cccc(C2(c3nc4c(c(=O)[nH]3)CN(C(=O)C(F)(F)c3cccc(C(F)(F)F)c3)CCC4)CC2)c1 [20-6]
< 50 | < 3 | O=C(N1CCCc2nc(C3(c4cncc(-c5ccccc5)c4)CC3)[nH]c(=O)c2C1)C(F)(F)c1cccc(Cl)c1 [22-2]
< 50 | – | CN1CCN(Cc2ccc(-c3cccc(C4(c5nc6c(c(=O)[nH]5)CN(C(=O)[C@H](O)c5cccc(C(F)(F)F)c5)CCC6)CC4)c3)cc2)CC1 [42-37]
< 50 | < 10 | O=C(Cc1cccc(SC(F)(F)F)c1)N1CCCc2nc(C3(c4cccc(Cl)c4)CC3)[nH]c(=O)c2C1 [17-113]
< 50 | < 10 | CC(C(=O)N1CCCc2nc(C3(c4cccc(Cl)c4)CC3)[nH]c(=O)c2C1)c1cccc(C(F)(F)F)c1 (stereo not shown) [17-88]
< 50 | – | CC(C)N(C)C(=O)c1csc(C2(c3nc4c(c(=O)[nH]3)CN(C(=O)[C@H](O)c3cccc(C(F)(F)F)c3)CCC4)CC2)c1 [59-5]
< 50 | < 10 | O=C([C@H](O)c1cccc(-c2cccc(OC(F)(F)F)c2)c1)N1CCCc2nc(C3(c4cccc(Cl)c4)CC3)[nH]c(=O)c2C1 [50-3]
< 50 | < 10 | O=C(C(O)c1cccc(-c2ccc(F)c(Cl)c2)c1)N1CCc2nc(C3(c4ccccc4)CC3)[nH]c(=O)c2C1 (stereo not shown) [44-14]
< 50 | < 3 | O=C([C@H](O)c1cccc(-c2ccc(OCc3ccccc3)nc2)c1)N1CCCc2nc(C3(c4ccccc4)CC3)[nH]c(=O)c2C1 [49-38]
< 50 | – | O=C(COc1cccc(C(F)(F)F)c1)N1CCCc2nc(C3(c4cccc(Cl)c4)CC3)[nH]c(=O)c2C1 [17-147]
< 50 | – | CC(C)(C)c1cccc(C(O)C(=O)N2CCc3nc(C4(c5cccc(F)c5)CC4)[nH]c(=O)c3C2)c1 (stereo not shown) [14-22]
< 50 | < 10 | CC(C)c1cccc(C2(c3nc4c(c(=O)[nH]3)CN(C(=O)[C@H](O)c3cccc(Cl)c3)CCC4)CC2)c1 [29-1]
< 50 | < 10 | O=C([C@H](O)c1cccc(Br)c1)N1CCCc2nc(C3(c4ccccc4)CC3)[nH]c(=O)c2C1 [17-77]
< 50 | < 10 | O=C(C(O)c1cccc(S(F)(F)(F)(F)F)c1)N1CCCc2nc(C3(c4ccccc4)CC3)[nH]c(=O)c2C1 (stereo not shown) [17-41]
< 50 | < 10 | CC(C)c1cncc(C2(c3nc4c(c(=O)[nH]3)CN(C(=O)[C@H](O)c3cccc(-c5ccc(F)cc5)c3)CC4)CC2)c1 [47-3]

IC50 [1] [nM] | IC50 [2] [nM] | SMILES
< 50 | – | O=C(Cc1ccccc1-c1ccccc1)N1CCCc2nc(C3(c4cccc(Cl)c4)CC3)[nH]c(=O)c2C1 [17-80]
< 50 | – | O=C([C@H](O)c1cccc(Cl)c1)N1CCc2nc(C3(c4cc(Cl)cs4)CC3)[nH]c(=O)c2C1 [15-14]
< 50 | < 10 | O=C(C(O)c1cccc(S(F)(F)(F)(F)F)c1)N1CCCc2nc(C3(c4cccs4)CC3)[nH]c(=O)c2C1 (stereo not shown) [18-8]
< 50 | < 10 | O=C([C@H](O)c1cccc(C(F)(F)F)c1)N1CCCc2nc(C3(c4cccc(-c5ccc(N6CCCC6)nc5)c4)CC3)[nH]c(=O)c2C1 [42-51]
< 50 | < 10 | O=C(Cc1ccccc1OCc1ccccc1)N1CCCc2nc(C3(c4ccccc4)CC3)[nH]c(=O)c2C1 [17-145]
< 50 | < 10 | O=C([C@H](O)c1cccc(-c2cc(C(F)(F)F)cc(C(F)(F)F)c2)c1)N1CCCc2nc(C3(c4ccccc4)CC3)[nH]c(=O)c2C1 [49-32]
< 50 | < 10 | CN(Cc1ccc(-c2cccc(C3(c4nc5c(c(=O)[nH]4)CN(C(=O)[C@H](O)c4cccc(C(F)(F)F)c4)CCC5)CC3)c2)cc1)C(=O)N1CCCCC1 [42-91]
< 50 | < 10 | O=C([C@H](O)c1cccc(Cl)c1)N1CCCc2nc(C3(c4cc(-c5cnsc5)cs4)CC3)[nH]c(=O)c2C1 [39-2]
< 50 | – | O=C(C(O)c1cccc(-c2cccc(F)c2)c1)N1CCCc2nc(C3(c4cccc(F)c4)CC3)[nH]c(=O)c2C1 (stereo not shown) [17-48]
< 50 | – | O=C([C@H](O)c1cccc(C(F)(F)F)c1)N1CCCc2nc(C3(c4cccc(-c5ccc(CN6CCCC6)cc5)c4)CC3)[nH]c(=O)c2C1 [42-52]
< 50 | – | O=C([C@H](O)c1cccc(F)c1F)N1CCCc2nc(C3(c4cccs4)CC3)[nH]c(=O)c2C1 [18-11]
< 50 | < 3 | O=C([C@H](O)c1cccc(Cl)c1)N1CCCc2nc(C3(c4cc(C5CCCCC5)cs4)CC3)[nH]c(=O)c2C1 [18-22]
< 50 | < 3 | O=C([C@H](O)c1cccc(-c2cc(Cl)cc(C(F)(F)F)c2)c1)N1CCCc2nc(C3(c4ccccc4)CC3)[nH]c(=O)c2C1 [49-36]
< 50 | – | O=C([C@H](O)c1cccc(Cl)c1)N1CCc2nc(C3(c4cccc(F)c4)CC3)[nH]c(=O)c2C1 [3-31]
< 50 | – | O=C([C@H](O)c1cccc(Cl)c1)N1CCc2nc(C3(c4cc(Br)cs4)CC3)[nH]c(=O)c2C1 [6-18]
< 50 | < 10 | O=C(Cc1cccc(S(F)(F)(F)(F)F)c1)N1CCCc2nc(C3(c4ccccc4)CC3)[nH]c(=O)c2C1 [17-31]
< 50 | < 10 | O=C([C@H](O)c1cccc(-c2cccc(OC(F)(F)F)c2)c1)N1CCCc2nc(C3(c4cccc(C5CCCCC5)c4)CC3)[nH]c(=O)c2C1 [52-4]
< 50 | < 3 | O=C(C(O)c1cccc(-c2cccc(OC(F)(F)F)c2)c1)N1CCc2nc(C3(c4cccs4)CC3)[nH]c(=O)c2C1 (stereo not shown) [15-28]
< 50 | < 10 | O=C(C(O)c1cccc(-c2cccc(OC(F)(F)F)c2)c1)N1CCc2nc(C3(c4cccc(F)c4)CC3)[nH]c(=O)c2C1 (stereo not shown) [14-7]
< 50 | < 3 | O=C([C@H](O)c1cccc(-c2ccc3c(c2)OC(F)(F)O3)c1)N1CCCc2nc(C3(c4ccccc4)CC3)[nH]c(=O)c2C1 [49-39]
< 50 | < 3 | O=C([C@H](O)c1cccc(-c2cc3ccccc3s2)c1)N1CCCc2nc(C3(c4ccccc4)CC3)[nH]c(=O)c2C1 [49-28]
< 50 | < 10 | O=C(Cc1cccc(C(F)(F)F)c1F)N1CCCc2nc(C3(c4ccccc4)CC3)[nH]c(=O)c2C1 [17-11]
